Measurements as given in US20260295053A1, “COMPOUNDS FOR DEGRADATION AND INHIBITION OF KRAS (G12D) PROTEIN” (Shenzhen Ionova Life Science Co., Ltd., priority 2023, published 2026).

What was measured:
[1] = target: T1, KRAS (G12D) (Homo sapiens, UniProt P01116, G12D); test: KRAS (G12D) cellular degradation assay in AsPC-1 cells; assay type: cell-based; settings: 24 hours, antibody fluorescence (Odyssey CLX), DC50 half-maximal degradation concentration
T1 construct: in-cell western with KRAS G12D antibody after 24 h
T1 sequence (P01116 1-188 isoform P01116-2 G12D): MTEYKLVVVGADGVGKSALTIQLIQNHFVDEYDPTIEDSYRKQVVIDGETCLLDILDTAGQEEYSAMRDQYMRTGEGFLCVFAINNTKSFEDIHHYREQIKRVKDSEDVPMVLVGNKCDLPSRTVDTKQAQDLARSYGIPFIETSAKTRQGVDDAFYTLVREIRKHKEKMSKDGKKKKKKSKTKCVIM
Procedure, shortened: (§1)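 Degradation: 22,000 cells/well grown to ~90% confluency, 24 h compound, fixed/permeabilised, anti-KRAS G12D + β-actin antibodies, near-IR fluorescence, DC50. Proliferation: 3,500 cells/well overnight, 6 d compound, CellTiter Glo luminescence, IC50. Dosing […]–1.5 nM final, 1:3 steps.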

[2] = tested on: AsPC-1 cells; test: AsPC-1 cell proliferation assay (CellTiter Glo); assay type: cell-based; settings: 6 days
Procedure, shortened: as §1

Row | DC50 [1] | IC50 ([2]; Homo sapiens, ASPC1, 144 h) | IC50 [2] | SMILES
1 | < 10 nM | < 10 nM |  | CO[C@@H](C)COc1nc(N2C[C@@H]3C[C@H]2CN3)c2cc(C3CC3)c(-c3c(C)c(F)cc4[nH]ncc34)c(OCc3ccc(-c4cn([C@H](C(=O)N5C[C@H](O)C[C@H]5C(=O)N[C@H](C#Cc5cccc6ncsc56)CO)C(C)C)nn4)cc3)c2n1 [Example 92, (2S,4R)-1-((2S)-2-(4-(4-(((4-((1S,4S)-2,5-diazabicyclo[2.2.1]heptan-2-yl)-6-cyclopropyl-7-(6-fluoro-5-methyl-1H-indazol-4-yl)-2-((S)-2-methoxypropoxy)quinazolin-8-yl)oxy)methyl)phenyl)-1H-1,2,3-triazol-1-yl)-3-methylbutanoyl)-N—((R)-4-(benzo[d]thiazol-7-yl)-1-hydroxybut-3-yn-2-yl)-4-hydroxypyrrolidine-2-carboxamide]
2 | > 1000 nM | > 1000 nM |  | CO[C@@H](C)COc1nc(N2C[C@@H]3C[C@H]2CN3)c2cc(C3CC3)c(-c3c(C)c(F)cc4[nH]ncc34)c(OCc3ccc(-c4cn([C@H](C(=O)N5C[C@H](O)C[C@H]5C(=O)N[C@H](c5ccc(S(F)(F)(F)(F)F)cc5)[C@H](C)O)C(C)C)nn4)cc3)c2n1 [Example 148, (2S,4R)-1-((2S)-2-(4-(4-(((4-((1S,4S)-2,5-diazabicyclo[2.2.1]heptan-2-yl)-6-cyclopropyl-7-(6-fluoro-5-methyl-1H-indazol-4-yl)-2-((S)-2-methoxypropoxy)quinazolin-8-yl)oxy)methyl)phenyl)-1H-1,2,3-triazol-1-yl)-3-methylbutanoyl)-4-hydroxy-N-((1R,2S)-2-hydroxy-1-(4-(pentafluoro-I6-sulfaneyl)phenyl)propyl)pyrrolidine-2-carboxamide]
3 | < 10 nM |  | < 10 nM | CO[C@@H](C)COc1nc(N2C[C@H]3C[C@@H]2CN3)c2cc(C3CC3)c(-c3c(C)c(F)cc4[nH]ncc34)c(OCc3ccc(-c4cn([C@H](C(=O)N5C[C@H](O)C[C@H]5C(=O)N[C@@H](CO)c5ccc(-c6scnc6C)cc5)C(C)C)nn4)cc3)c2n1 (single isomer, unassigned) [Example 2A]
4 | 10 to 100 nM | 10 to 100 nM |  | CCn1nccc1-c1ccc([C@H](CO)NC(=O)[C@@H]2C[C@@H](O)CN2C(=O)[C@H](C(C)C)n2cc(-c3ccc(COc4c(-c5c(C)c(F)cc6[nH]ncc56)c(C5CC5)cc5c(N6CCC=CCC6)nc(OC[C@H](C)OC)nc45)cc3)nn2)cc1 [Example 158, (2S,4R)-1-((2S)-2-(4-(4-(((6-cyclopropyl-7-(6-fluoro-5-methyl-1H-indazol-4-yl)-2-((S)-2-methoxypropoxy)-4-(2,3,6,7-tetrahydro-1H-azepin-1-yl)quinazolin-8-yl)oxy)methyl)phenyl)-1H-1,2,3-triazol-1-yl)-3-methylbutanoyl)-N—((R)-1-(4-(1-ethyl-1H-pyrazol-5-yl)phenyl)-2-hydroxyethyl)-4-hydroxypyrrolidine-2-carboxamide]
5 | < 10 nM | < 10 nM |  | CCn1nccc1-c1ccc([C@H](CO)NC(=O)[C@@H]2C[C@@H](O)CN2C(=O)[C@H](C(C)C)n2cc(-c3ccc(COc4c(-c5c(C)c(F)cc6[nH]ncc56)c(C5CC5)cc5c(N6C[C@@H]7C[C@H]6CN7)nc(OCC(F)(F)COC)nc45)cc3)nn2)cc1 [Example 47, (2S,4R)-1-((2S)-2-(4-(4-(((4-((1S,4S)-2,5-diazabicyclo[2.2.1]heptan-2-yl)-6-cyclopropyl-2-(2,2-difluoro-3-methoxypropoxy)-7-(6-fluoro-5-methyl-1H-indazol-4-yl)quinazolin-8-yl)oxy)methyl)phenyl)-1H-1,2,3-triazol-1-yl)-3-methylbutanoyl)-N—((R)-1-(4-(1-ethyl-1H-pyrazol-5-yl)phenyl)-2-hydroxyethyl)-4-hydroxypyrrolidine-2-carboxamide]
6 | < 10 nM |  | < 10 nM | CCn1nccc1-c1ccc([C@H](CO)NC(=O)[C@@H]2C[C@@H](O)CN2C(=O)[C@H](C(C)C)n2cc(-c3ccc(COc4c(-c5c(C)c(F)cc6[nH]ncc56)c(C5CC5)cc5c(N6C[C@H]7C[C@@H]6CN7)nc(OC[C@H](C)OC)nc45)cc3)nn2)cc1 (single isomer, unassigned) [Example 1A]
7 | < 10 nM |  | < 10 nM | CCn1nccc1-c1ccc([C@@H](NC(=O)[C@@H]2C[C@@H](O)CN2C(=O)[C@H](C(C)C)n2cc(-c3ccc(COc4c(-c5c(C)c(F)cc6[nH]ncc56)c(C5CC5)cc5c(N6C[C@@H]7C[C@H]6CN7)nc(OCC(OC)C(F)F)nc45)cc3)nn2)[C@H](C)O)cc1 (stereo partly drawn) [Example 122, (2S,4R)-1-((2S)-2-(4-(4-(((4-((1S,4S)-2,5-diazabicyclo[2.2.1]heptan-2-yl)-6-cyclopropyl-2-(3,3-difluoro-2-methoxypropoxy)-7-(6-fluoro-5-methyl-1H-indazol-4-yl)quinazolin-8-yl)oxy)methyl)phenyl)-1H-1,2,3-triazol-1-yl)-3-methylbutanoyl)-N-((1R,2S)-1-(4-(1-ethyl-1H-pyrazol-5-yl)phenyl)-2-hydroxypropyl)-4-hydroxypyrrolidine-2-carboxamide]
8 | < 10 nM | < 10 nM |  | CO[C@@H](C)COc1nc(N2C[C@@H]3C[C@H]2CN3)c2cc(C3CC3)c(-c3c(C)c(F)cc4[nH]ncc34)c(OCc3ccc(-c4cn([C@H](C(=O)N5C[C@H](O)C[C@H]5C(=O)N[C@H](c5ccc(-c6scnc6C)cc5)[C@H](C)O)C(C)C)nn4)cc3)c2n1 [Example 82, (2S,4R)-1-((2S)-2-(4-(4-(((4-((1S,4S)-2,5-diazabicyclo[2.2.1]heptan-2-yl)-6-cyclopropyl-7-(6-fluoro-5-methyl-1H-indazol-4-yl)-2-((S)-2-methoxypropoxy)quinazolin-8-yl)oxy)methyl)phenyl)-1H-1,2,3-triazol-1-yl)-3-methylbutanoyl)-4-hydroxy-N-((1R,2S)-2-hydroxy-1-(4-(4-methylthiazol-5-yl)phenyl)propyl)pyrrolidine-2-carboxamide]
9 | < 10 nM | < 10 nM |  | CO[C@@H](C)COc1nc(N2CCCNCC2)c2cc(C3CC3)c(-c3c(C)c(F)cc4[nH]ncc34)c(OCc3ccc(-c4cn([C@H](C(=O)N5C[C@H](O)C[C@H]5C(=O)N[C@H](c5ccc(-c6scnc6C)cc5)[C@H](C)O)C(C)C)nn4)cc3)c2n1 [Example 157, (2S,4R)-1-((2S)-2-(4-(4-(((6-cyclopropyl-4-(1,4-diazepan-1-yl)-7-(6-fluoro-5-methyl-1H-indazol-4-yl)-2-((S)-2-methoxypropoxy)quinazolin-8-yl)oxy)methyl)phenyl)-1H-1,2,3-triazol-1-yl)-3-methylbutanoyl)-4-hydroxy-N-((1R,2S)-2-hydroxy-1-(4-(4-methylthiazol-5-yl)phenyl)propyl)pyrrolidine-2-carboxamide]
10 | < 10 nM | < 10 nM |  | Cc1ncsc1-c1ccc([C@@H](NC(=O)[C@@H]2C[C@@H](O)CN2C(=O)[C@H](C(C)C)n2cc(-c3ccc(COc4c(-c5c(C)c(F)cc6[nH]ncc56)c(C5CC5)cc5c(N6C[C@@H]7C[C@H]6CN7)nc(OC6CCOCC6)nc45)cc3)nn2)[C@H](C)O)cc1 [Example 72, (2S,4R)-1-((2S)-2-(4-(4-(((4-((1S,4S)-2,5-diazabicyclo[2.2.1]heptan-2-yl)-6-cyclopropyl-7-(6-fluoro-5-methyl-1H-indazol-4-yl)-2-((tetrahydro-2H-pyran-4-yl)oxy)quinazolin-8-yl)oxy)methyl)phenyl)-1H-1,2,3-triazol-1-yl)-3-methylbutanoyl)-4-hydroxy-N-((1R,2S)-2-hydroxy-1-(4-(4-methylthiazol-5-yl)phenyl)propyl)pyrrolidine-2-carboxamide]

Row | SMILES | DC50 [1] | IC50 ([2]; Homo sapiens, ASPC1, 144 h) | IC50 [2]
11 | CCn1nccc1-c1ccc([C@H](CO)NC(=O)[C@@H]2C[C@@H](O)CN2C(=O)[C@H](C(C)C)n2cc(-c3ccc(COc4c(-c5c(C)c(F)cc6[nH]ncc56)c(C5CC5)cc5c(N(C)[C@@H]6CCNC6)nc(O[C@H]6C[C@H](OC)C6)nc45)cc3)nn2)c2c1CC2 [Example 204, (2S,4R)-1-((2S)-2-(4-(4-(((6-cyclopropyl-7-(6-fluoro-5-methyl-1H-indazol-4-yl)-2-((1r,3R)-3-methoxycyclobutoxy)-4-(methyl((R)-pyrrolidin-3-yl)amino)quinazolin-8-yl)oxy)methyl)phenyl)-1H-1,2,3-triazol-1-yl)-3-methylbutanoyl)-N—((R)-1-(5-(1-ethyl-1H-pyrazol-5-yl)bicyclo[4.2.0]octa-1(6),2,4-trien-2-yl)-2-hydroxyethyl)-4-hydroxypyrrolidine-2-carboxamide] | < 10 nM | < 10 nM | 
12 | CCn1nccc1-c1ccc([C@H](CO)NC(=O)[C@@H]2C[C@@H](O)CN2C(=O)[C@H](C(C)C)n2cc(-c3ccc(COc4c(-c5c(C)c(F)cc6[nH]ncc56)c(C5CC5)cc5c(N6C[C@@H]7C[C@H]6CN7)nc(O[C@H]6C[C@H](OC)C6)nc45)cc3)nn2)cc1 [Example 74, (2S,4R)-1-((2S)-2-(4-(4-(((4-((1S,4S)-2,5-diazabicyclo[2.2.1]heptan-2-yl)-6-cyclopropyl-7-(6-fluoro-5-methyl-1H-indazol-4-yl)-2-((1r,3S)-3-methoxycyclobutoxy)quinazolin-8-yl)oxy)methyl)phenyl)-1H-1,2,3-triazol-1-yl)-3-methylbutanoyl)-N—((R)-1-(4-(1-ethyl-1H-pyrazol-5-yl)phenyl)-2-hydroxyethyl)-4-hydroxypyrrolidine-2-carboxamide] | < 10 nM | < 10 nM | 
13 | CCn1nccc1-c1ccc([C@H](CO)NC(=O)[C@@H]2C[C@@H](O)CN2C(=O)[C@H](C(C)C)n2cc(-c3ccc(COc4c(-c5c(C)c(F)cc6[nH]ncc56)c(C5CC5)cc5c(N(C)[C@H]6CCNC6)nc(O[C@H]6C[C@H](OC)C6)nc45)cc3)nn2)cc1 [Example 165, (2S,4R)-1-((2S)-2-(4-(4-(((6-cyclopropyl-7-(6-fluoro-5-methyl-1H-indazol-4-yl)-2-((1r,3S)-3-methoxycyclobutoxy)-4-(methyl((S)-pyrrolidin-3-yl)amino)quinazolin-8-yl)oxy)methyl)phenyl)-1H-1,2,3-triazol-1-yl)-3-methylbutanoyl)-N—((R)-1-(4-(1-ethyl-1H-pyrazol-5-yl)phenyl)-2-hydroxyethyl)-4-hydroxypyrrolidine-2-carboxamide] | < 10 nM | < 10 nM | 
